This passage reports relative viability results from the supplement of paper PMC10307832.

What all share (experiment): relative viability (nuclei count vs DMSO), 5 days (fraction); higher = more cells survive
Compound in assay [1]: C[C@@]1(C(=O)Nc2ccc(F)nc2)CCCN1c1nc(Nc2cc(C3CC3)n[nH]2)c2cccn2n1 + CC1(C)CCC(c2ccc(Cl)cc2)=C(CN2CCN(c3ccc(C(=O)NS(=O)(=O)c4ccc(N[C@H](CCN5CCOCC5)CSc5ccccc5)c(S(=O)(=O)C(F)(F)F)c4)cc3)CC2)C1 [Navitoclax] (partner 0.5 µM)
The essentials:
(§1)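 Nuclei were stained with Hoechst during a one-step fixation (final 0.05% Triton X-100, 1% formaldehyde, 1 ug/ml Hoechst) carried out 5 days after dosing, then counted on 4× images. The cells, lung cancer lines in 1536-well plates, had been dosed by pin tool the day after seeding with one drug alone or a fixed anchor-drug dose plus five library-drug doses (not always all listed) in √10 steps. Relative viability is the nuclei count in treated wells divided by that in vehicle wells, and each value is the median of duplicate plates.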

Compound in assay [2]: CC1(C)CNc2cc(NC(=O)c3cccnc3NCc3ccncc3)ccc21 [Motesanib] + Nc1ncn([C@H]2C[C@H](O)[C@@H](CO)O2)c(=O)n1 [Decitabine] (partner 2 µM)
The gist of the method:
as §1

Compound in assay [3]: C[C@@]1(C(=O)Nc2ccc(F)nc2)CCCN1c1nc(Nc2cc(C3CC3)n[nH]2)c2cccn2n1 + Nc1ncn([C@H]2C[C@H](O)[C@@H](CO)O2)c(=O)n1 [Decitabine] (partner 2 µM)
The gist of the method: as §1

Compound in assay [4]: CC1(C)CNc2cc(NC(=O)c3cccnc3NCc3ccncc3)ccc21 [Motesanib] + COc1cc2c(Oc3ccc(NC(=O)C4(C(=O)Nc5ccc(F)cc5)CC4)cc3F)ccnc2cc1OCCCN1CCOCC1 [Foretinib] (partner 0.25 µM)
The gist of the method: as §1

In the case of SW 1573, the relative viability in assay [1] (first compound 0.04 µM) amounted to 0.875; in assay [1] (first compound 0.1265 µM), 0.471; in assay [1] (first compound 0.4 µM) it was 0.655; in assay [1] (first compound 1.265 µM), 0.8; in assay [2] (first compound 0.01 µM) it was 0.532; in assay [2] (first compound 0.03162 µM), 0.511. Further, the relative viability in assay [2] (first compound 0.1 µM) was determined as 0.458; in assay [2] (first compound 0.3162 µM), 0.586; in assay [2] (first compound 1 µM) it was 0.553; in assay [3] (first compound 0.04 µM), 0.465; in assay [3] (first compound 0.1265 µM), 0.413; in assay [3] (first compound 0.4 µM) it was 0.429. The relative viability is 0.177 in assay [3] (first compound 1.265 µM); 0.772 in assay [4] (first compound 0.01 µM); 0.905 in assay [4] (first compound 0.03162 µM); 0.93 in assay [4] (first compound 0.1 µM); 0.936 in assay [4] (first compound 0.3162 µM); 1.08 in assay [4] (first compound 1 µM).
As to UMC-11, the relative viability in assay [1] (first compound 0.04 µM) is 0.365; in assay [1] (first compound 0.1265 µM) it was 0.293; in assay [1] (first compound 0.4 µM), 0.249; in assay [1] (first compound 1.265 µM), 0.269; in assay [2] (first compound 0.01 µM), 0.611; in assay [2] (first compound 0.03162 µM), 0.677. Further, the relative viability in assay [2] (first compound 0.1 µM) came to 0.331; in assay [2] (first compound 0.3162 µM), 0.653; in assay [2] (first compound 1 µM), 0.724; in assay [3] (first compound 0.04 µM) it was 0.638; in assay [3] (first compound 0.1265 µM), 0.45; in assay [3] (first compound 0.4 µM), 0.317. The relative viability in assay [3] (first compound 1.265 µM) is 0.646; in assay [4] (first compound 0.01 µM), 0.998; in assay [4] (first compound 0.03162 µM), 1.08; in assay [4] (first compound 0.1 µM), 0.985; in assay [4] (first compound 0.3162 µM), 1.08; in assay [4] (first compound 1 µM) it was 1.2.
